Several values for one entry are separate records, joined by “and”; a condition that tells them apart may be missing. Equal values may be shown once.
How the values were obtained:
[1] = Plasma exposures following oral administration to beagle dogs; details: for Prodrug formula 4-A Concentrations in Dog Plasma / EFdA Concentrations in Dog Plasma / concentration at 0.25 h / concentration at 0.5 h / concentration at 1 h: Prodrug formula 4-A PO 8.25 mg/kg; for concentration at 0.25 h / concentration at 0.5 h / concentration at 1 h: male, beagle, dog, in vivo, po, Prodrug formula 4-A Concentrations in Dog Plasma
[2] = test system: HIV-1 NL4-3 in MT-4 cells; test: Two-drug combination antiviral cytoprotection (CPE) assay, MacSynergy II analysis; format: cell-based; details: HIV-1 NL4-3 virus in MT4 cells
Experimental: On the day preceding the assay, the cells were split 1:2 to assure they were in an exponential growth phase at the time of infection.
Combination cytotoxicity was evaluated in parallel on two identical assay plates (i.e., duplicate measurements) that included cell control wells.

[3] = Plasma stability and conversion to EFdA
Experimental: The pooled frozen plasma was thawed in a water bath at 37° C. prior to experiment. Plasma was centrifuged at 4000 rpm for 5 min and the clots were removed if any. The pH will be adjusted to 7.4±0.1 if required.
Preparation of test compounds and positive control (propantheline bromide): 1 mM intermediate solution was prepared by diluting 10 μL of the stock solution with 90 μL MeOH; 1 mM intermediate of positive control Propantheline was prepared by diluting 10 μL of the stock solution with 90 μL ultrapure water. 100 μM dosing solution was prepared by diluting 20 μL of the intermediate solution (1 mM) with 180 μL MeOH. 98 μL of blank plasma was spiked with 2 μL of dosing solution (100 μM) to achieve 2 μM of the final concentration in duplicate and samples were incubated at 37° C. in a water bath. At each time point (0, 10, 30, 60 and 120 min), […] of stop solution (0.1% FA in MeOH containing 200 ng/mL tolbutamide and 200 ng/mL Labetalol) was added to precipitate protein and mixed thoroughly. Centrifuged sample plates at 4,000 rpm for 10 min. An aliquot of supernatant (100 μL) was transferred from each well to another plates.
Data analysis: The % remaining of test compound after incubation in plasma was calculated using following equation: % Remaining=100×(PAR at appointed incubation time/PAR at T0 time) where PAR is the peak area ratio of analyte versus internal standard (IS) (LC/MS/MS mobile phase condition: 0.1% Formic Acid in Water/0.1% Formic Acid in Acetonitrile. The appointed incubation time points are TO (0 min), Tn (n=0, 10, 30, 60, 120 min). Liver S9 Stability

[4] = Liver S9 stability and conversion to EFdA; format: in vitro ADME, human
Experimental: Intermediate solution: Dilute 5 μL of compounds or controls (7-ethoxycoumarin) from stock solution (10 mM) with 495 μL MeOH (Conc.: 100 μM, 1% DMSO, 99% MeOH). Stop solution: Cold ACN (including 100 ng/mL Tolbutamide and Labetalol as internal standard). Add 2 μL test compound or control working solution/well to all plates (T0, T5, T10, T20, T30, T60, NCF60) except matrix blank. Add 600 μL/well stop solution (cold in 4° C., including 100 ng/mL Tolbutamide/100 ng/mL Labetalol) to terminate the TO plate, then put it on ice. Dispense 840 μL/well S9 solution to 96-well plate as reservoir according to plate map. Then add 100 μL/well to every plate by Apricot. Incubate S9 solution and compound at 37° C. for about 10 min except NCF60 and TO. After adding S9 solution and 98 μLPB buffer to NCF60, incubate at 37° C. without pre-warming, start timer 1. After 60 min, add 600 μL/well stop solution to terminate the reaction. After pre-warming, dispense 760 μL/well cofactor solution to 96-well plate as reservoir according to plate map. Then add 98 μL/well to every plate by Apricot to start reaction. Incubate at 37° C., start timer 2, Add 600 μL/well stop solution (cold in 4° C., including 100 ng/mL Tolbutamide and Labetalol) to terminate the reaction. Samples are centrifuged at 4000 rpm for 20 min. While centrifuging, load 8×new 96-well plate with 300 μL HPLC water, then transfer 100 μL supernatant, mix with water for LC/MS/MS, transferred to Bioanalytical Services for LC-MS/MS analysis. Use equation of first order kinetics to calculate t1/2 and CL: Equation of first order kinetics: […]

**Q.** Which “Prodrug formula 4-A Concentrations in Dog Plasma” value ([1]; 0.250 hrs, individual animals, 8.25 mg/kg) does the source give for `C#C[C@]1(COC(=O)OCc2oc(=O)oc2C)O[C@@H](n2cnc3c(N)nc(F)nc32)C[C@@H]1O` [Formula 4-A, ((2R,3S,5R)-5-(6-amino-2-fluoro-9H-purin-9-yl)-2-ethynyl-3-hydroxytetrahydrofuran-2-yl)methyl ((5-methyl-2-oxo-1,3-dioxol-4-yl)methyl) carbonate] here?
**A.** 1.63 ng/mL and 1.09 ng/mL

**Q.** What about the “Prodrug formula 4-A Concentrations in Dog Plasma” value ([1]; 0.500 hrs, individual animals, 8.25 mg/kg) of the same compound?
**A.** BQL

**Q.** And the “Prodrug formula 4-A Concentrations in Dog Plasma” value ([1]; 1.00 hrs, individual animals, 8.25 mg/kg)?
**A.** BQL

**Q.** And the “Prodrug formula 4-A Concentrations in Dog Plasma” value ([1]; 2.00 hrs, individual animals)?
**A.** BQL

**Q.** What about the “Prodrug formula 4-A Concentrations in Dog Plasma” value ([1]; 4.00 hrs, individual animals) of the same compound?
**A.** BQL

**Q.** And the “Prodrug formula 4-A Concentrations in Dog Plasma” value ([1]; 6.00 hrs, individual animals)?
**A.** BQL

**Q.** What about the “Prodrug formula 4-A Concentrations in Dog Plasma” value ([1]; 8.00 hrs, individual animals) of the same compound?
**A.** BQL

**Q.** And the “EFdA Concentrations in Dog Plasma” value ([1]; 12.0 hrs, individual animals)?
**A.** BQL

**Q.** What about the “Prodrug formula 4-A Concentrations in Dog Plasma” value ([1]; 12.0 hrs, individual animals) of the same compound?
**A.** BQL

**Q.** And the “EFdA Concentrations in Dog Plasma” value ([1]; 24.0 hrs, individual animals)?
**A.** BQL

**Q.** And the “Prodrug formula 4-A Concentrations in Dog Plasma” value ([1]; 24.0 hrs, individual animals)?
**A.** BQL

**Q.** What about the “EFdA AUC and Cmax compared with a dose-equivalent EFdA” value ([1]; dogs, oral) of the same compound?
**A.** higher AUC and Cmax

**Q.** What about the “Prodrug detected in the systemic circulation” value ([1]; dogs, oral) of the same compound?
**A.** minimal prodrug detected in the systemic circulation

**Q.** What about the concentration at 0.25 h ([1]; 8.25 mg/kg, 0.250 hrs, Mean) of the same compound?
**A.** 1.28 ng/mL

**Q.** What about the concentration at 0.25 h ([1]; 8.25 mg/kg, 0.250 hrs, individual animals) of the same compound?
**A.** 1.13 ng/mL

**Q.** And the concentration at 0.5 h ([1]; 8.25 mg/kg, 0.500 hrs, Mean)?
**A.** 1.68 ng/mL

**Q.** And the concentration at 0.5 h ([1]; 8.25 mg/kg, 0.500 hrs, individual animals)?
**A.** 1.68 ng/mL

**Q.** And the concentration at 1 h ([1]; 8.25 mg/kg, 1.00 hrs, Mean)?
**A.** 1.43 ng/mL

**Q.** What about the concentration at 1 h ([1]; 8.25 mg/kg, 1.00 hrs, individual animals) of the same compound?
**A.** 1.43 ng/mL

**Q.** What about the “Antiviral activity upon combination with lenacapavir” value [2] of the same compound?
**A.** synergistic antiviral activity

**Q.** And the “Conversion to the target drug (EFdA) in human plasma assay” value [3]?
**A.** converted to the target drug efficiently

**Q.** And the “Stability in Human Plasma Formation of EFdA” value ([3]; human plasma)?
**A.** Yes

**Q.** What about the half-life at 2 µM ([3]; human, plasma, pH 7.4) of the same compound?
**A.** < 50 min

**Q.** What about the “Conversion to the target drug (EFdA) in liver S9 assay” value [4] of the same compound?
**A.** converted to the target drug efficiently

**Q.** What about the “Stability in Human Liver S9 Formation of EFdA” value ([4]; human liver S9) of the same compound?
**A.** Yes

**Q.** And the half-life at 1 µM ([4]; human liver S9, 37° C.)?
**A.** < 50 min
